Data taken from the supplement of paper PMC10307832.

Legend:
Assay in all cases: relative viability (nuclei count vs DMSO), 5 days (fraction); higher = more cells survive
[1] = compound: C[C@H]([C@@H](C(=O)N)NC(=O)[C@@H]1CSSC[C@@H](C(=O)N[C@H](C(=O)N[C@@H](C(=O)N[C@H](C(=O)N1)CCCCN)CC2=CNC3=CC=CC=C32)CC4=CC=C(C=C4)O)NC(=O)[C@@H](CC5=CC=CC=C5)N)O [CAP-232] + CC(C)C[C@H](NC(=O)[C@H](Cc1ccccc1)NC(=O)c1cnccn1)B(O)O [Bortezomib] (partner 0.002 µM)
Procedure, shortened: (§1)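 The day after seeding in 1536-well plates, lung cancer cell lines were treated by pin tool with a single drug, or with a fixed anchor-drug dose together with five library-drug doses (not always all listed) in √10 steps. After 5 days, a combined fix-and-stain solution (final 0.05% Triton X-100, 1% formaldehyde, 1 ug/ml Hoechst) was added. Nuclei counted on 4× images gave relative viability as treated counts over vehicle counts, reported as the median of duplicate plates.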

[2] = compound: C[C@H]([C@@H](C(=O)N)NC(=O)[C@@H]1CSSC[C@@H](C(=O)N[C@H](C(=O)N[C@@H](C(=O)N[C@H](C(=O)N1)CCCCN)CC2=CNC3=CC=CC=C32)CC4=CC=C(C=C4)O)NC(=O)[C@@H](CC5=CC=CC=C5)N)O [CAP-232] + COc1cc2c(Oc3ccc(NC(=O)C4(C(=O)Nc5ccc(F)cc5)CC4)cc3F)ccnc2cc1OCCCN1CCOCC1 [Foretinib] (partner 0.25 µM)
Procedure, shortened: as §1

[3] = compound: C[C@H]([C@@H](C(=O)N)NC(=O)[C@@H]1CSSC[C@@H](C(=O)N[C@H](C(=O)N[C@@H](C(=O)N[C@H](C(=O)N1)CCCCN)CC2=CNC3=CC=CC=C32)CC4=CC=C(C=C4)O)NC(=O)[C@@H](CC5=CC=CC=C5)N)O [CAP-232] + CC(=O)c1c(C)c2cnc(Nc3ccc(N4CCNCC4)cn3)nc2n(C2CCCC2)c1=O [Palbociclib] (partner 0.5 µM)
Procedure, shortened: as §1

[4] = compound: C[C@H]([C@@H](C(=O)N)NC(=O)[C@@H]1CSSC[C@@H](C(=O)N[C@H](C(=O)N[C@@H](C(=O)N[C@H](C(=O)N1)CCCCN)CC2=CNC3=CC=CC=C32)CC4=CC=C(C=C4)O)NC(=O)[C@@H](CC5=CC=CC=C5)N)O [CAP-232] + Nc1ncn([C@H]2C[C@H](O)[C@@H](CO)O2)c(=O)n1 [Decitabine] (partner 2 µM)
Procedure, shortened: as §1

[5] = compound: C[C@H]([C@@H](C(=O)N)NC(=O)[C@@H]1CSSC[C@@H](C(=O)N[C@H](C(=O)N[C@@H](C(=O)N[C@H](C(=O)N1)CCCCN)CC2=CNC3=CC=CC=C32)CC4=CC=C(C=C4)O)NC(=O)[C@@H](CC5=CC=CC=C5)N)O [CAP-232] + Nc1nc2[nH]cc(CCc3ccc(C(=O)N[C@@H](CCC(=O)O)C(=O)O)cc3)c2c(=O)[nH]1 [Pemetrexed] (partner 0.2 µM)
Procedure, shortened: as §1

Cell Line	relative viability ([1]; first compound 0.4 µM)	relative viability ([1]; first compound 1.265 µM)	relative viability ([1]; first compound 4 µM)	relative viability ([1]; first compound 12.65 µM)	relative viability ([2]; first compound 0.4 µM)	relative viability ([2]; first compound 1.265 µM)	relative viability ([2]; first compound 4 µM)	relative viability ([2]; first compound 12.65 µM)	relative viability ([3]; first compound 0.4 µM)	relative viability ([3]; first compound 1.265 µM)	relative viability ([3]; first compound 4 µM)	relative viability ([3]; first compound 12.65 µM)	relative viability ([4]; first compound 0.4 µM)	relative viability ([4]; first compound 1.265 µM)	relative viability ([4]; first compound 4 µM)	relative viability ([4]; first compound 12.65 µM)	relative viability ([5]; first compound 0.4 µM)	relative viability ([5]; first compound 1.265 µM)	relative viability ([5]; first compound 4 µM)	relative viability ([5]; first compound 12.65 µM)
HCC-366	1.22	0.942	1.15	1	0.914	0.948	0.891	0.898	0.454	0.362	0.41	0.331	0.407	0.301	0.317	0.384	0.201	0.175	0.202	0.17
HCC-827	1.19	1.06	1.03	1	1.05	1	1.01	1.01	0.423	0.498	0.461	0.514	0.334	0.357	0.324	0.365	0.266	0.277	0.222	0.231
HOP-62	0.924		1.11	0.699	1.04	1.07	1.01	1.03	0.491	0.42	0.436	0.386	0.255	0.209	0.256	0.229	0.331	0.322	0.341	0.295
LC-2-ad	1.05	1.01	1.11	1	0.875	0.878	0.894	0.524	0.478	0.517	0.473	0.513	0.866	0.705	0.76	0.771	0.278	0.269	0.287	0.228
LCLC-97TM1	0.83	0.765	0.856	0.555	0.879	0.9	1.01	0.925	0.243	0.22	0.187	0.248	0.195	0.211	0.192	0.237	0.192	0.16	0.167	0.183
LCLC-103H	1.33	0.927	1.16	1	0.838	0.735	0.802	0.827	0.469	0.429	0.487	0.485	0.777	0.687	0.735	0.704	0.443	0.441	0.431	0.445
LOU-NH91	0.528	0.458	0.463	0.549	0.994	0.903	0.86	0.919	0.525	0.482	0.522	0.39	0.787	0.787	0.8	0.594	0.473	0.378	0.392	0.275
LU99A	1.14	1.1	1.18	1.05	0.811	0.787	0.977	0.736	0.392	0.375	0.407	0.505	0.861	0.806	1.1	0.973	0.181	0.139	0.182	0.177
LXF-289	1.06	0.976	0.975	1	0.985	0.965	1.01	0.995	0.611	0.625	0.58	0.62	0.331	0.36	0.391	0.343	1.05	0.839	0.904	0.958
NCI-H23	1.15	1.03	1.06	0.953	0.926	0.883	0.718	0.802	0.437	0.478	0.523	0.567	0.293	0.295	0.296	0.295	0.686	0.492	0.746	0.623
NCI-H322M	1.53	1.2	1.14	1.28	1.05	0.962	0.952	0.985	0.494	0.427	0.446	0.508	0.706	0.654	0.701	0.704	0.621	0.645	0.599	0.788
NCI-H441	0.429	0.357	0.392	0.436	0.895	1.03	0.7	1.07	0.209	0.19	0.257	0.214	0.26	0.242	0.286	0.234	0.25	0.234	0.281	0.262
NCI-H460	1.49	1.17	1.22	0.812	1.02	1.1	1.22	0.622	0.246	0.148	0.155	0.0823	0.496	0.475	0.541	0.17	0.0632	0.0566	0.0556	0.0558
NCI-H520	0.71	0.508	0.611	0.438	0.734	0.98	0.92	0.47	0.241	0.224	0.249	0.234	0.496	0.509	0.518	0.416	0.581	0.651	0.673	0.634
NCI-H647	0.938	0.807	0.931	0.562	1.15	1.06	1.36	0.749	0.34	0.358	0.404	0.284	0.308	0.372	0.318	0.297	0.153	0.184	0.182	0.158
NCI-H650	0.999	0.754	0.792	0.769	1.01	1	0.969	0.926	0.358	0.306	0.271	0.285	0.342	0.278	0.278	0.156	0.869	0.786	0.799	0.932
NCI-H661	0.658	0.809	0.733	0.851	0.986	0.951	1.05	1.02	0.415	0.403	0.433	0.35	0.546	0.543	0.583	0.446	0.885	0.872	0.98	0.827
NCI-H838	0.916	0.643	0.86	0.544	1.23	1.02	1.11	0.75	0.228	0.205	0.237	0.212	0.408	0.469	0.479	0.374	0.254	0.26	0.245	0.261
NCI-H1355	1.27	1.22	1.39	1.24	1.07	1.04	0.945	0.908	0.42	0.413	0.432	0.343	0.339	0.33	0.391	0.338	1.03	0.946	1.19	1
NCI-H1437	0.604	0.584	0.598	0.521	1.26	1.27	1.34	1.2	0.293	0.312	0.315	0.303	0.559	0.535	0.624	0.523	0.299	0.288	0.33	0.321
NCI-H1650	0.196	0.209	0.214	0.117	1.07	1.11	1.25	0.542	0.306	0.304	0.38	0.243	0.404	0.423	0.554	0.192	0.436	0.385	0.451	0.336
NCI-H1651	1.01	0.939	1.02	0.953	0.709	0.913	0.843	0.485	0.561	0.525	0.511	0.522	0.681	0.579	0.707	0.683	0.686	0.514	0.676	0.709
NCI-H1666	0.759		0.952	0.393	0.946	0.989	0.892	0.821	0.715	0.636	0.655	0.67	0.711	0.735	0.814	0.796	0.911	0.887	0.984	0.874
NCI-H1734	0.919	0.902	1.06	0.74	0.883	0.863	0.971	0.697	0.34	0.336	0.368	0.233	0.484	0.511	0.516	0.397	0.44	0.402	0.402	0.307
NCI-H1755	1.05	0.912	1.15	0.887	0.927	0.883	0.934	0.815	0.474	0.406	0.48	0.413	0.734	0.738	0.761	0.723	0.398	0.375	0.514	0.393
NCI-H1915	1.1	1.05	1.06	0.95	1.11	1.11	1.11	1.09	0.5	0.538	0.524	0.511	0.272	0.227	0.269	0.25	0.563	0.41	0.55	0.464
